Test [1] deals with T1, RARβ (Homo sapiens, UniProt P10826).
T1 construct: made in house; host or cells: Baculovirus expression (insect cell extract)
T1 sequence (P10826 1-455): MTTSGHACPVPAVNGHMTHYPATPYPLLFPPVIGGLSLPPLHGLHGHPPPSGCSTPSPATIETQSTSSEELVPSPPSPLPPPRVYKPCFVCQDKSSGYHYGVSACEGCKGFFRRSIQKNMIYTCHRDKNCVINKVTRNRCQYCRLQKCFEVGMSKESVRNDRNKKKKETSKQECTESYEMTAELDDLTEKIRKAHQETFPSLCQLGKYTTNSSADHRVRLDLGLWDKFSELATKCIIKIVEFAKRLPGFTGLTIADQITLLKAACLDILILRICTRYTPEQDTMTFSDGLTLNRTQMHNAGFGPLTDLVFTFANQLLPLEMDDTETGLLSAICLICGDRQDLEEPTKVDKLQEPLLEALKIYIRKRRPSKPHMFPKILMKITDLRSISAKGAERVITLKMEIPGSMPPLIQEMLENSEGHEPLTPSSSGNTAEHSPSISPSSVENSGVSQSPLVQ
The test is described as follows: Ligand binding assay, RARβ. The method, then: (§1) All binding assays were performed in a similar fashion. All six receptor types were derived from the expressed receptor type (RARα, β, Γ and RXRα, β, Γ) expressed in Baculovirus. Stock solutions of all compounds were prepared as 10 mM ethanol solutions and serial dilutions carried out into 1:1 DMSO; ethanol. Assay buffers consisted of the following for all six receptor assays: 8% glycerol, 120 mM KCl 8 mM Tris, 5 mM CHAPS 4 mM DTT and 0.24 mM PMSF, pH-7.4@ room temperature.
(§2) All receptor binding assays were performed in the same manner. The final assay volume was 250 μl and contained from 10-40 μg of extract protein depending on receptor being assayed along with 5 nM of [^3H] all-trans retinoic acid or 10 nM [^3H] 9-cis retinoic acid and varying concentrations of competing ligand at concentrations that ranged from 0-10^−5 M. The assays were formatted for a 96 well minitube system. Incubations were carried out at 4° C. until equilibrium was achieved. Non-specific binding was defined as that binding remaining in the presence of 1000 nM of the appropriate unlabeled retinoic acid isomer. At the end of the incubation period, 50 μl of 6.25% hydroxyapitite was added in the appropriate wash buffer. The wash buffer consisted of 100 mM KCl, 10 mM Tris and either 5 mM CHAPS (RXRα, β, Γ) or 0.5% Triton X-100 (RARα, β, Γ). The mixture was vortexed and incubated for 10 minutes at 4° C., centrifuged and the supernatant removed. The hydroxyapitite was washed three more times with the appropriate wash buffer. The receptor-ligand complex was adsorbed by the hydroxyapitite. The amount of receptor-ligand complex was determined by liquid scintillation counting of hydroxyapitite pellet.
(§3) After correcting for non-specific binding, IC50 values were determined. […] The IC50 value was determined graphically from a loglogit plot of the data. The […] were determined by application of the Cheng-Prussof equation to the IC50 values, the labeled ligand concentration and the Kd of the labeled ligand.
(§4) The results of ligand binding assay are expressed in Kd numbers. (See Cheng et al. Biochemical Pharmacology Vol. 22 pp 3099-3108, expressly incorporated herein by reference.)

Test [2] has as its system AML-193 cells (acute monocytic leukemia). The test can be described thus: AML 193 cell culture assay (3H-thymidine incorporation). It is filed as cell-based, human. The note with it: low concentrations; for growth of AML 193 cells at low concentrations: FIG. 2. The method, then:
(§5) All trans-retinoic acid (t-RA) (Sigma Chemicals Co., St. Louis, Mo.) was stored at −70° C. Prior to each experiment the compound was dissolved in 100% ethanol at 1 mM and diluted in culture medium immediately before use. All experiments were performed in subdued light. Controls were assayed using the same concentration of ethanol as present in the experimental plates and this concentration of diluent had no effect in either assay.
AML-193 was established from the blast cells classified as M5 Acute Monocyte Leukemia. The growth factor, […] (GM-CSF) was required to establish this cell line and growth factors are necessary for its continuous proliferation in chemically defined medium. AML-193 cells were grown and maintained in Iscove's modified Dulbecco's medium supplemented with 10% fetal bovine serum, glutamine and antibiotics with 5 μg/ml insulin (Sigma Chemical Co.) and 2 ng/ml rh GM-CSF (R and D Systems). The cells were diluted to a concentration of 3×10^5/ml twice a week.
(§6) AML-193 cells were plated in a 96 well round bottom microtiter plate (Costar) at a density of 1,000 cells/well. To appropriate wells, retinoid test compounds were added at the final concentrations indicated for a final volume of 150 μl/well. The plates were incubated for 96 hours at 37° C. in a humidified atmosphere of 5% CO2 in air. Subsequently, 1 μCi of [5′-^3H]-thymidine (Amersham, U.K., 43 Ci/mmol specific activity) in 25 μl culture medium was added to each well and the cells were incubated for an additional 6 hours.
(§7) The cell lines were then processed as follows: the cellular DNA was precipitated with 10% trichloroacetic acid onto glass fiber filter mats using a SKATRON multi-well cell harvester (Skatron Instruments, Sterling Va.). Radioactivity incorporated into DNA, as a direct measurement of cell growth, was measured by liquid scintillation counting. The numbers represent the mean disintegrations per minute of incorporated thymidine from triplicate wells±SEM.
On the technique in general: Dividing cells build labelled thymidine or BrdU into new DNA.

For test [3], the target named is T2, RARα (Homo sapiens, UniProt P10276).
T2 construct: made in house; host or cells: Baculovirus expression (insect cell extract)
T2 sequence (P10276 1-462): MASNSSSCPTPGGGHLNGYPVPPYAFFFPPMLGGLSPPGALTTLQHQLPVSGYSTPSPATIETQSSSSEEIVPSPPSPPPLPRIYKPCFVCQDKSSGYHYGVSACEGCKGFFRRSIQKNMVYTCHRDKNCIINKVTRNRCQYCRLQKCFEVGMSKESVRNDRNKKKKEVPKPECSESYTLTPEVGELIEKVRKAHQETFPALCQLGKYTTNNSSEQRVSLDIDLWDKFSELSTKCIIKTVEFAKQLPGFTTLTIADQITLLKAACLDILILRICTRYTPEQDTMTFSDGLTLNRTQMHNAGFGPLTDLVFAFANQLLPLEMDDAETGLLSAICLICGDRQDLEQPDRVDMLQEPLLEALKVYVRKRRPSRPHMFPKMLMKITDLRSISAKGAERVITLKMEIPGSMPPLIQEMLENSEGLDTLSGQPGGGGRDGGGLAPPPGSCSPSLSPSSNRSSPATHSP
The test is described as follows: Ligand binding assay, RARα. On the procedure: as §1, §2, §3
The results of ligand binding assay are expressed in Kd numbers. […]

Test [4] addresses T3, RARΓ (Homo sapiens, UniProt P13631).
T3 construct: made in house; host or cells: Baculovirus expression (insect cell extract)
T3 sequence (P13631 1-454): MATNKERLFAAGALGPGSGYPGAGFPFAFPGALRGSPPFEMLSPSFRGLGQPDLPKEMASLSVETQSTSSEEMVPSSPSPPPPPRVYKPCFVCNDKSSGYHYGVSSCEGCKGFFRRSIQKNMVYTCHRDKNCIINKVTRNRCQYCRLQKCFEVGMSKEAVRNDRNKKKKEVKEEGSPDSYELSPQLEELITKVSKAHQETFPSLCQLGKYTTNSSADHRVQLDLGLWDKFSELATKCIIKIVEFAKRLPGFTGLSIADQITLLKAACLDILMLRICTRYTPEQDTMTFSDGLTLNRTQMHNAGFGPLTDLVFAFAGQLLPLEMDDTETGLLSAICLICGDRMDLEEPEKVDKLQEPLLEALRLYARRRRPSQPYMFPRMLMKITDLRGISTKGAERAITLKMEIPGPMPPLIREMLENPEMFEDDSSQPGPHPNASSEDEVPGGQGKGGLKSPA
The test is described as follows: Ligand binding assay, RARΓ. On the procedure: as §1, §2, §3, §4

Test [5] relates to limb bud mesenchymal cells. The test can be described thus: Chondrogenesis suppression bioassay (teratogenic potency). The conditions noted are these: read-out: IC50 (50% inhibition of chondrogenesis); mouse limb bud spot cultures, 96 hours after plating; greater IC50 signifies lesser teratogenecity. It is filed as cell-based. The method, then: High-density “spot” cultures of limb bud mesenchymal cells are used to compare the ability of various concentrations of test drugs to suppress chondrogenic differentiation as a bioassay. Forelimb buds of mouse embryos on day 12 of gestation (54±2 somites) are dissociated in a trypsin-EDTA solution, and the resultant single-cell suspension is plated as 20-μl spots (200,000 cells/spot) on plastic culture dishes. Retinoid concentrations ranging from 0.3 ng/ml to 3 μg/ml (1 nM−10 μM) are added to the culture medium (Eagle's MEM±10% fetal bovine serum, GIBCO) 24 hours after initial plating. Control cultures receive only the vehicle (ethanol, concentration≦1% by vol); Retinoic acid is used as a positive control in another set of cultures.
The cultures are terminated 96 hours after plating, at which time the medium is removed and the cells are fixed for 1 hour in 10% formalin containing 0.5% cetylpyridinium chloride. The cultures are rinsed in acetic acid and stained for 1 hour in 0.5% Alcian blue solution at pH 1.0, differentiated in 3% acetic acid, and then dehydrated in ethanol and scored for chondrogenesis under the microscope. An absence or reduction in the number of cartilage nodules in stained cultures as compared with control cultures is taken as a measure of suppression of chondrogenesis. The number of cartilage nodules stained in the whole spot, mean number of nodules, and standard deviations are calculated for four replicate cultures per treatment. […] The IC50 values are expressed in nanogram per mililiter (ng/ml) units. An IC50 value of greater concentration in this assay signifies lesser teratogenecity.

The subject of test [6] is retinal pigment epithelium (RPE) cells. The test can be described thus: Primary RPE culture proliferation. In kind it is cell-based, human. The note with it: FIG. 5; 10^−10 to 10^−6 M, six days treatment. The method, then: Primary cultures of human retinal pigment epithelium (RPE) were established from eyes as previously described, (Campochiaro et al., Invest. Opthal & Vis. Sci. 32:65-72 (1991)). 5×10^4 Cells were plated in 16-mm wells of 24-well multiwell plates in Dulbecco's modified Eagle's medium (DMEM Gibco) containing 10% fetal bovine serum (FBS). Cells were treated with ethanol alone (control), ATRA (10^−10 to 10^−6 M) in ethanol, and Compound 42 (10^−10 to 10^−6 M) in ethanol. Cells were fed with fresh media containing the appropriate concentrations of these compounds every two days for a total of six days treatment. Cells were removed from the plates via treatment with trypsin and the number of cells were counted with an electronic cell counter.

In test [7] the test system is RPMI 8226 cells (malignant myeloma). The test is described as follows: RPMI 8226 cell culture assay (3H-thymidine incorporation). It is filed as cell-based, human. The conditions noted are these: FIG. 1; low concentration range 10^−12 to approximately 10^−9. On the procedure: as §5
The cell lines, RPMI 8226, ME-180 and AML-193 were obtained from the American Type Culture Collection (ATCC, Rockville, Md.). RPMI 8226 is a human hematopoietic cell line obtained from the peripheral blood of a patient with multiple myeloma. The cells resemble the lymphoblastoid cells of other human lymphocyte cell lines and secrete […] light chains of immunoglobulin. RPMI-8226 cells are grown in RPMI medium (Gibco) supplemented with 10% fetal bovine serum, glutamine and antibiotics. The cells were maintained as suspension cultures grown at 37° C. in a humidified atmosphere of 5% CO2 in air. The cells were diluted to a concentration of 1×10^5/ml twice a week.
as §6, with “The method used for determination of the incorporation of radiolabeled thymidine was adapted from the procedure described by Shrivastav et al. RPMI-8226” for “AML-193”, “U.K.” for “U.K.,”, “hours. The cultures were further processed as described below.” for “hours.”
as §7

Each structure is given as a SMILES string. In brackets after ≈: the same amount, converted by molar mass.

`CC1(C)CC=C(C#N)c2cc(C#Cc3ccc(C(=O)O)cc3)ccc21` [AGN 193090, 4-[(8-cyano-5,6-dihydro-5,5-dimethylnaphth-2-yl)ethynyl]benzoic acid, reference compound]: the Kd (commonly the equilibrium constant for the complex coming apart) in test [1] stood at 34 nM; in test [3], 109 nM; in test [4] it was 77 nM. Moreover, the “growth of AML 193 cells at low concentrations” value in test [2] is “do not inhibit but rather at these low concentrations even stimulate such cell growth”.

In the case of `CC(C)(C)C=C1CCC(C)(C)c2ccc(C#Cc3ccc(C(=O)O)cc3)cc21` [AGN 193459, 4-[(5,6-dihydro-5,5-dimethylnaphth-7(6H)-8-(1-2,2-dimethylpropylidene)naphth-2-yl)ethynyl]benzoic acid, reference compound], the equilibrium dissociation constant (Kd) in test [1] was found to be 2 nM; in test [3] it was 6 nM; in test [4], 7 nM. The “growth of AML 193 cells at low concentrations” value in test [2] is on record as “do not inhibit but rather at these low concentrations even stimulate such cell growth”.

As for `CC1(C)CCC(C)(C)c2c1cc(C(=O)Nc1ccc(C(=O)O)c(F)c1)c(O)c2Br` [Compound 30], the Kd in test [3] was under 3 nM.

As for `CC1=C(/C=C/C(C)=C/C=C/C(C)=C/C(=O)O)C(C)(C)CCC1` [ATRA, all trans retinoic acid, reference compound], the half-maximal inhibitory concentration (IC50) (as a rule, the concentration at which inhibition is half-maximal) in test [5] is 0.055 µg/mL (≈ 0.183 µM). Further, the RPE cell proliferation entry in test [6] is on record as “dose dependent decrease in RPE cell proliferation”. In test [2] (FIG. 3), the “AML-193 cell proliferation at low concentrations” value is recorded as “promotes cell proliferation”. The “growth of RPMI 8226 cells at low concentration” value in test [7] is “facilitates growth”.
